In patent US11725036B2, “Modified lipidated relaxin B chain peptides and their therapeutic use” (Sanofi, priority 2018, dated 2023):
In brackets after ≈: the same amount, converted by molar mass. Where two headings read alike, the source gives them in different places. Starred links: 1 amine or outer side, 2 acyl side, 3 side chain; linkers in the order of their positions; H or OH if unused. Non-standard residues stand in square brackets, D forms with d. Residues, ends and D or L forms follow the SMILES beside them. Groups on a side chain read outwards from the residue. *: point of attachment. X5 = CCCCCCCCCCCCCCCC(=O)N[C@@H](CCC(=O)N[C@@H](CCC(=O)N[C@@H](CCC(=O)NCCCOCCOCCOCCCNC(=O)CCC(=O)NCCCOCCOCCOCCCNC(=O)CCC(=O)NCCCOCCOCCOCCCNC(=O)CCC(=O)NCCCOCCOCCOCCCN*)C(=O)O)C(=O)O)C(=O)O; X1 = CCCCCCCCCCCCCCCC(=O)N[C@@H](CCC(=O)N[C@@H](CCC(=O)N[C@@H](CCC(=O)NCCCOCCOCCOCCCNC(=O)CCC(=O)NCCCOCCOCCOCCCNC(=O)CCC(=O)NCCCOCCOCCOCCCN*)C(=O)O)C(=O)O)C(=O)O; γGlu = O=C(O)[C@H](CCC(=O)[*:2])N[*:1]; Stearoyl = CCCCCCCCCCCCCCCCCC(=O)*; Suc = O=C(CCC(=O)[*:2])[*:1]; αMeK = C[C@](N)(CCCCN)C(=O)O; AEEA = NCCOCCOCC(=O)O; Aib = CC(C)(N)C(=O)O

Experiments:
RXFP1 = target: T1, RXFP1 (Homo sapiens, UniProt Q9HBX9); assay: OVCAR5 cAMP assay (HTRF); type: cell-based; conditions: for EC50: OVCAR 5 cells expressing endogenous RXFP1, cAMP readout; for Emax: OVCAR 5 cells, maximal cAMP relative to H2-relaxin
T1 construct: OVCAR5 cells expressing endogenous RXFP1; endogenous in cells; host or cells: OVCAR5
T1 sequence (Q9HBX9 1-757): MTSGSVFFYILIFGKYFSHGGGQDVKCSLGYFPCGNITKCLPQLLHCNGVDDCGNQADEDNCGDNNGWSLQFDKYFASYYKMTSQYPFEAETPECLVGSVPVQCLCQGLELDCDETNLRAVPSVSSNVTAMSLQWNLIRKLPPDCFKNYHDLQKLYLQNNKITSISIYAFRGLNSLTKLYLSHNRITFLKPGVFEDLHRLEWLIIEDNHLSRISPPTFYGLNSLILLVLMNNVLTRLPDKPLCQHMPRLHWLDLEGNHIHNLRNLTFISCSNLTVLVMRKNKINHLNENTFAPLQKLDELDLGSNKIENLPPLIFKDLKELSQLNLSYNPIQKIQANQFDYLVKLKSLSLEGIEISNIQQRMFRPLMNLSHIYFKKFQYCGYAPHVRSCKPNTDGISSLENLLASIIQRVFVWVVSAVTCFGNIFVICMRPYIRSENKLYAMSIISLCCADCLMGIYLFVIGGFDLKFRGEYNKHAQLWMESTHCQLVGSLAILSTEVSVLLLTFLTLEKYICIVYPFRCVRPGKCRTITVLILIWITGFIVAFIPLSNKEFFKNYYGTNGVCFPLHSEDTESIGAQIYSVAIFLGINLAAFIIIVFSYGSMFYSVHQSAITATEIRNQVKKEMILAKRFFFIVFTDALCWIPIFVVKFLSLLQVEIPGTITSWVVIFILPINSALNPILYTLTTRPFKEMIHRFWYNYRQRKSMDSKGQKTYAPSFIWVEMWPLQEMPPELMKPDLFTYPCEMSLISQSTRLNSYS
Procedure, shortened: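 Peptide agonism measured as intracellular cAMP (HTRF) after 30 min at 37° C in serum-free medium, following 40 min 1 mM IBMX preincubation of OVCAR5 cells. Nonlinear regression gave EC50; Emax % = 100 × compound maximal cAMP / H2-relaxin maximal cAMP.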

[1] = Solubility testing in buffer; type: physicochemical; conditions: target solubility 10.0 mg/ml
Description: Prior to the testing of solubility of a peptide batch, its purity (HPLC-UV) was determined.
Acetate Buffer 50 mM pH4.5: 0.75 g C2H3C02Na,3H2O (Sigma S7545)+0.35 ml CH3CO2H 100% solution dissolved in Millipore water, adjusted to pH with diluted (1:1) CH3CO2H and diluted to 250 ml with Millipore water.
In a 4 ml Ependorph vial, an accurately weighed sample of compound was diluted in study media to obtain target concentration of 2, 6 or 10 mg/ml of pure compound. The sample vials were shacked (rock 'roll shaker) for ˜19 h. 300 μL aliquots were filtered through a Millipore “Solvinert” plate (0.45 μm-PTFE hydrophilic).
pH was measured with a micro electrode
Waters Acquity UPLC System with DAD detector
Column: Waters Peptide Column CSH C18 (130 Å; 1.7 μm; 50*2.1 mm)
Column temperature: 60° C.
Full loop (about 5 μL)—overfill factor 5
Weak et Strong wash: H2O/ACN (75/25; V/V); Seal wash: H2O/IsOH (95/5; V/V). Mobile phase:
Solvent A: 0.05% TFA in H2O; Solvent B: 0.035% TFA in CH3CN
Gradient: from 0 to 12 min B=2% to 60%, from 12 to 14 min B=60% to 100%. Column washing 100% B 1 min, column equilibration 2% B 2.5 min.
UV detector: wavelength: 220 nm.

[2] = acetate buffer 50 mM pH 4.5, read-out: Solubility Acetate buffer pH 4.5
[3] = phosphate buffer 50 mM pH 7.4, read-out: Solubility phosphate buffer pH 7.4

Row | Structure (SMILES) | EC50 (RXFP1) | Emax (RXFP1) | solubility [1, 2] | solubility [1, 3]
1 | CCCCCCCCCCCCCCCC(=O)N[C@@H](CCC(=O)N[C@@H](CCC(=O)N[C@@H](CCC(=O)NCCCOCCOCCOCCCNC(=O)CCC(=O)NCCCOCCOCCOCCCNC(=O)CCC(=O)NCCCOCCOCCOCCCNC(=O)CCC(=O)NCCCOCCOCCOCCCNC(=O)CCC(=O)NCCCC[C@H](NC(=O)CNC(=O)[C@H](CCC(=O)O)NC(=O)C(C)(C)NC(=O)C(C)(C)NC(=O)[C@@H](NC(=O)[C@H](CCCCNC(C)=O)NC(=O)[C@H](C)NC(=O)[C@H](CCCNC(=N)N)NC(=O)[C@@H](NC(=O)[C@H](CCCNC(=N)N)NC(=O)[C@H](CCC(=O)O)NC(=O)[C@H](CCCNC(=N)N)NC(=O)CNC(=O)[C@H](CCC(=O)O)NC(=O)[C@H](CC(C)C)NC(C)=O)C(C)C)[C@@H](C)CC)C(=O)N[C@@H](CO)C(=O)N[C@H](C(=O)N[C@@H](Cc1c[nH]c2ccccc12)C(=O)N[C@@H](CO)C(=O)NC(C)(C)C(=O)N[C@@H](CCCNC(=N)N)C(=O)N[C@@H](CCCNC(=N)N)C(=O)N[C@@H](CCCCNC(C)=O)C(N)=O)[C@@H](C)O)C(=O)O)C(=O)O)C(=O)O [compound 75] (Ac-LEGRERVRAK(Ac)I[Aib][Aib]EGK([Suc-X5])STWS[Aib]RRK(Ac)-NH2) | 0.19 nM | 97% | 8580 µg/mL (≈ 1800 µM) | 9560 µg/mL (≈ 2010 µM)
2 | CCCCCCCCCCCCCCCC(=O)N[C@@H](CCC(=O)N[C@@H](CCC(=O)N[C@@H](CCC(=O)NCCCOCCOCCOCCCNC(=O)CCC(=O)NCCCOCCOCCOCCCNC(=O)CCC(=O)NCCCOCCOCCOCCCNC(=O)CCC(=O)NCCCC[C@H](NC(=O)CNC(=O)[C@H](CCC(=O)O)NC(=O)C(C)(C)NC(=O)C(C)(C)NC(=O)[C@@H](NC(=O)[C@H](CCCCNC(C)=O)NC(=O)[C@H](C)NC(=O)[C@H](CCCNC(=N)N)NC(=O)[C@@H](NC(=O)[C@H](Cc1ccccc1)NC(=O)[C@H](CCC(=O)O)NC(=O)[C@H](CCCNC(=N)N)NC(=O)CNC(=O)[C@H](CCC(=O)O)NC(=O)[C@H](CC(C)C)NC(C)=O)C(C)C)[C@@H](C)CC)C(=O)N[C@@H](CO)C(=O)N[C@H](C(=O)N[C@@H](Cc1ccccc1)C(=O)N[C@@H](CO)C(=O)N[C@@](C)(CCCCN)C(=O)N[C@@H](CCCNC(=N)N)C(=O)N[C@@H](C)C(=O)N[C@@H](CCCCNC(C)=O)C(N)=O)[C@@H](C)O)C(=O)O)C(=O)O)C(=O)O [compound 24] (Ac-LEGREFVRAK(Ac)I[Aib][Aib]EGK([Suc-X1])STFS[αMeK]RAK(Ac)-NH2) | 36.4 nM | 100% | 280 µg/mL (≈ 63.9 µM) | 6930 µg/mL (≈ 1580 µM)
3 | CCCCCCCCCCCCCCCCCC(=O)N[C@@H](CCC(=O)N[C@@H](CCC(=O)N[C@@H](CCC(=O)NCCOCCOCC(=O)NCCOCCOCC(=O)NCCOCCOCC(=O)NCCOCCOCC(=O)NCCCC[C@H](NC(=O)CNC(=O)[C@H](CCC(=O)O)NC(=O)C(C)(C)NC(=O)C(C)(C)NC(=O)[C@@H](NC(=O)[C@H](CCCCNC(C)=O)NC(=O)[C@H](C)NC(=O)[C@H](CCCNC(=N)N)NC(=O)[C@@H](NC(=O)[C@H](CCCCN)NC(=O)[C@H](CCC(=O)O)NC(=O)[C@H](CCCNC(=N)N)NC(=O)CNC(=O)[C@H](CCC(=O)O)NC(=O)[C@H](CC(C)C)NC(C)=O)C(C)C)[C@@H](C)CC)C(=O)N[C@@H](CO)C(=O)N[C@H](C(=O)N[C@@H](Cc1c[nH]c2ccccc12)C(=O)N[C@@H](CO)C(=O)NC(C)(C)C(=O)N[C@@H](CCCNC(=N)N)C(=O)N[C@@H](CCCCN)C(=O)N[C@@H](CCCCNC(C)=O)C(N)=O)[C@@H](C)O)C(=O)O)C(=O)O)C(=O)O [compound 21] (Ac-LEGREKVRAK(Ac)I[Aib][Aib]EGK([AEEA-AEEA-AEEA-AEEA-γGlu-γGlu-γGlu-Stearoyl])STWS[Aib]RKK(Ac)-NH2) | 0.65 nM | 93% | 6280 µg/mL (≈ 1530 µM) | 6590 µg/mL (≈ 1610 µM)

Further lines, results first:

Row | EC50 (RXFP1) | Emax (RXFP1) | solubility [1, 2] | solubility [1, 3] | Structure (SMILES)
4 | 28.7 nM | 100% | 6580 µg/mL (≈ 1510 µM) | 6750 µg/mL (≈ 1550 µM) | CCCCCCCCCCCCCCCC(=O)N[C@@H](CCC(=O)N[C@@H](CCC(=O)N[C@@H](CCC(=O)NCCCOCCOCCOCCCNC(=O)CCC(=O)NCCCOCCOCCOCCCNC(=O)CCC(=O)NCCCOCCOCCOCCCNC(=O)CCC(=O)NCCCC[C@H](NC(=O)CNC(=O)[C@H](CCC(=O)O)NC(=O)C(C)(C)NC(=O)C(C)(C)NC(=O)[C@@H](NC(=O)[C@H](CCCCNC(C)=O)NC(=O)[C@H](C)NC(=O)[C@H](CCCNC(=N)N)NC(=O)[C@@H](NC(=O)[C@H](CCC(N)=O)NC(=O)[C@H](CCC(=O)O)NC(=O)[C@H](CCCNC(=N)N)NC(=O)CNC(=O)[C@H](CCC(=O)O)NC(=O)[C@H](CC(C)C)NC(C)=O)C(C)C)[C@@H](C)CC)C(=O)N[C@@H](CO)C(=O)N[C@H](C(=O)N[C@@H](Cc1ccccc1)C(=O)N[C@@H](CO)C(=O)N[C@@](C)(CCCCN)C(=O)N[C@@H](CCCNC(=N)N)C(=O)N[C@@H](C)C(=O)N[C@@H](CCCCNC(C)=O)C(N)=O)[C@@H](C)O)C(=O)O)C(=O)O)C(=O)O [compound 25] (Ac-LEGREQVRAK(Ac)I[Aib][Aib]EGK([Suc-X1])STFS[αMeK]RAK(Ac)-NH2)
5 | 2.2 nM | 97% | 11100 µg/mL (≈ 2520 µM) | 10700 µg/mL (≈ 2440 µM) | CCCCCCCCCCCCCCCC(=O)N[C@@H](CCC(=O)N[C@@H](CCC(=O)N[C@@H](CCC(=O)NCCCOCCOCCOCCCNC(=O)CCC(=O)NCCCOCCOCCOCCCNC(=O)CCC(=O)NCCCOCCOCCOCCCNC(=O)CCC(=O)NCCCC[C@H](NC(=O)CNC(=O)[C@H](CCC(=O)O)NC(=O)C(C)(C)NC(=O)C(C)(C)NC(=O)[C@@H](NC(=O)[C@H](CCCCNC(C)=O)NC(=O)[C@H](C)NC(=O)[C@H](CCCNC(=N)N)NC(=O)[C@@H](NC(=O)[C@H](CCCCN)NC(=O)[C@H](CCC(=O)O)NC(=O)[C@H](CCCNC(=N)N)NC(=O)CNC(=O)[C@H](CCC(=O)O)NC(=O)[C@H](CC(C)C)NC(C)=O)C(C)C)[C@@H](C)CC)C(=O)N[C@@H](CO)C(=O)N[C@H](C(=O)N[C@@H](Cc1c[nH]c2ccccc12)C(=O)N[C@H](CO)C(=O)N[C@@H](CCCCN)C(=O)N[C@@H](CCCNC(=N)N)C(=O)N[C@@H](C)C(=O)N[C@@H](CCCCNC(C)=O)C(N)=O)[C@@H](C)O)C(=O)O)C(=O)O)C(=O)O [compound 44] (Ac-LEGREKVRAK(Ac)I[Aib][Aib]EGK([Suc-X1])STW[dS]KRAK(Ac)-NH2)
6 | 0.36 nM | 95% | 8280 µg/mL (≈ 1930 µM) | 8770 µg/mL (≈ 2040 µM) | CCCCCCCCCCCCCCCC(=O)N[C@@H](CCC(=O)N[C@@H](CCC(=O)N[C@@H](CCC(=O)NCCCOCCOCCOCCCNC(=O)CCC(=O)NCCCOCCOCCOCCCNC(=O)CCC(=O)NCCCOCCOCCOCCCNC(=O)CCC(=O)NCCCC[C@H](NC(=O)CNC(=O)[C@H](CCC(=O)O)NC(=O)C(C)(C)NC(=O)C(C)(C)NC(=O)[C@@H](NC(=O)[C@H](CCCCNC(C)=O)NC(=O)[C@H](C)NC(=O)[C@H](CCCNC(=N)N)NC(=O)[C@@H](NC(=O)[C@H](CCCCN)NC(=O)[C@H](CCC(=O)O)NC(=O)[C@H](CCCNC(=N)N)NC(=O)CNC(=O)[C@H](CCC(=O)O)NC(=O)[C@H](CC(C)C)NC(C)=O)C(C)C)[C@@H](C)CC)C(=O)N[C@@H](CO)C(=O)N[C@H](C(=O)N[C@@H](Cc1c[nH]c2ccccc12)C(=O)N[C@@H](CO)C(=O)NC(C)(C)C(=O)N[C@@H](CCCNC(=N)N)C(=O)N[C@@H](C)C(=O)N[C@@H](CCCCN)C(N)=O)[C@@H](C)O)C(=O)O)C(=O)O)C(=O)O [compound 71] (Ac-LEGREKVRAK(Ac)I[Aib][Aib]EGK([Suc-X1])STWS[Aib]RAK-NH2)
